In brackets after ≈: the same amount, converted by molar mass.

One test addresses T1, hCA XII (Homo sapiens, UniProt O43570).
T1 construct: gene CA12
Description: stopped-flow CO2 hydration. It counts as biochemical. Particulars: read-out: KI (nM) * / Human Isoforms / hCA XII. From the text:
stopped-flow CO2 hydration on hCA XII

The target of the next test is T2, hCA IX (Homo sapiens, UniProt Q16790).
T2 construct: gene CA9
Description: stopped-flow CO2 hydration. It counts as biochemical. The note with it: read-out: KI (nM) * / Human Isoforms / hCA IX. From the text:
stopped-flow CO2 hydration on hCA IX

The target of a further test is T3, hCA II (Homo sapiens, UniProt P00918).
T3 construct: gene CA2; purchased from Merck
Description: stopped-flow CO2 hydration. It counts as biochemical. The note with it: read-out: KI (nM) * / Human Isoforms / hCA II. The source says:
stopped-flow CO2 hydration on hCA II

The target of another test is T4, hCA I (Homo sapiens, UniProt P00915).
T4 construct: gene CA1; purchased from Merck
T4 sequence (P00915 2-261): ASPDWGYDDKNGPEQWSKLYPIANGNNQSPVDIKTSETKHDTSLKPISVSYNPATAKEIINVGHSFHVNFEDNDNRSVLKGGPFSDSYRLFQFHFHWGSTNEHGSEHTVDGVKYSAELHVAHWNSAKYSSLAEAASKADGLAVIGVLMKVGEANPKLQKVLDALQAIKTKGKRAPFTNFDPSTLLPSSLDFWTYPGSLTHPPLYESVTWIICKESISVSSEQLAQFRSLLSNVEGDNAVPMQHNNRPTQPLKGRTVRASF
Description: stopped-flow CO2 hydration. It counts as biochemical. The note with it: read-out: KI (nM) * / Human Isoforms / hCA I. The source says: stopped-flow CO2 hydration on hCA I

In another test the target is T5, HpαCA (Helicobacter pylori, UniProt B5Z8I0).
T5 construct: gene HPG27_1129; recombinant, obtained in-house; PDB 4XFW is given for docking only
T5 sequence (B5Z8I0 22-247): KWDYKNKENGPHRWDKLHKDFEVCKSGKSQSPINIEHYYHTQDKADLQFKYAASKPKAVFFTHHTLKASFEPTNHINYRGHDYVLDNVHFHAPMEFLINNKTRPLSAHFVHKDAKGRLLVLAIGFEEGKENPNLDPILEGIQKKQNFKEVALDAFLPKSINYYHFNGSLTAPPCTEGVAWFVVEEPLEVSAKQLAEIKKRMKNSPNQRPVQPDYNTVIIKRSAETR
Description: stopped-flow CO2 hydration. It counts as biochemical. The note with it: read-out: KI (nM) * / Bacterial Isoforms / Hp αCA.

For the next test, the target named is T6, PsCA3 (Pseudomonas aeruginosa, UniProt Q9HVB9).
T6 construct: gene PA4676; recombinant, obtained in-house
T6 sequence (Q9HVB9 1-215): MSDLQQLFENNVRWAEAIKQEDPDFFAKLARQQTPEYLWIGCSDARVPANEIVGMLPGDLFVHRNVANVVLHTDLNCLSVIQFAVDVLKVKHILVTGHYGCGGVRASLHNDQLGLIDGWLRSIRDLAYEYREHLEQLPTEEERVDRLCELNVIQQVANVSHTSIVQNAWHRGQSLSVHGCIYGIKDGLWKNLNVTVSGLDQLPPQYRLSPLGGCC
Description: stopped-flow CO2 hydration. It counts as biochemical. Particulars: read-out: KI (nM) * / Bacterial Isoforms / Ps CA3.

Another test has as its target T7, HpβCA (Helicobacter pylori, UniProt Q9ZN54).
T7 construct: gene cynT; recombinant, obtained in-house
T7 sequence (Q9ZN54 1-221): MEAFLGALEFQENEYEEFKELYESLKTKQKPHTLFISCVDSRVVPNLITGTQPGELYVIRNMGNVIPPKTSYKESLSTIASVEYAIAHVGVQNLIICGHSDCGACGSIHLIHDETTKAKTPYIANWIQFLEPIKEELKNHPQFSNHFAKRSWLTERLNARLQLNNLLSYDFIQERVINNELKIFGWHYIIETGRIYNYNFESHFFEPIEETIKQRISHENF
Description: stopped-flow CO2 hydration. It counts as biochemical. Particulars: read-out: KI (nM) * / Bacterial Isoforms / Hp βCA.

A further test relates to T8, H. pylori ATCC 43504.
T8 construct: ATCC 43504
Description: microbe, parasite or virus in culture. Further details: species or system Helicobacter pylori ATCC 43504; MIC by broth microdilution, alamarBlue and CFU count; MBC by CFU count. The note with it: Helicobacter pylori, ATCC43504. The protocol: H. pylori ATCC 43504 was cultured on a Columbia Agar base (Becton Dickinson and Company, Franklin Lakes, NJ, USA) supplemented with 10% horse serum (Merck, St. Louis, MO, USA) and 0.25% yeast extract (Oxoid Ltd., Hampshire, UK), incubated at 37 °C for 72 h in a microaerophilic atmosphere (CampyGen, Thermo Fisher Scientific, Milan, Italy). Colonies were collected and transferred into 10 mL of Brain Heart Infusion broth (BHI, Oxoid Ltd., Hampshire, UK) supplemented with 5% (v/v) of fetal bovine serum (FBS, Merck, Milan, Italy) and incubated overnight at 37 °C, at 125 rpm under microaerophilic conditions. After 18 h of incubation, the broth culture was diluted to obtain a bacterial suspension of 10^6 CFU/mL. MICs were determined by three different assays: the broth micro-dilution method, the alamarBlue assay, and the CFU count. […] This bacterium was selected based on the inhibitory potency evidenced by the two series of azobenzenesulfonamides against the HpCAs.

In the next test the target is T9, EcoβCA (Escherichia coli, UniProt P61517).
T9 construct: gene can; recombinant, obtained in-house
T9 sequence (P61517 whole entry): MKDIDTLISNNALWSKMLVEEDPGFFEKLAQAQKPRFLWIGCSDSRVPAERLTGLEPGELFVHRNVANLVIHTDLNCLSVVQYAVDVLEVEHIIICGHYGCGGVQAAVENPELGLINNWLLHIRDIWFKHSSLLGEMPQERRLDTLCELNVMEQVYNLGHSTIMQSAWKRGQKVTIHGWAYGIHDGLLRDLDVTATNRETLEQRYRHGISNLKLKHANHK
Description: stopped-flow CO2 hydration. It counts as biochemical. Particulars: read-out: KI (nM) * / Bacterial Isoforms / Eco βCA.

A further test has as its target T10, PgiγCA.
T10 construct: gene PgiCA; recombinant, obtained in-house
Description: stopped-flow CO2 hydration. It counts as biochemical, Porphyromonas gingivalis. The note with it: pH […] HEPES, […] Na2SO4, […] min preincubation, r.t.; read-out: KI (nM) * / Bacterial Isoforms / Pgi γCA.

A further test deals with T11, PgiβCA.
T11 construct: gene PgiCAb; recombinant, obtained in-house
Description: stopped-flow CO2 hydration. Particulars: pH […] HEPES, […] Na2SO4, […] min preincubation, r.t.; read-out: KI (nM) * / Bacterial Isoforms / Pgi βCA. It counts as biochemical, Porphyromonas gingivalis.

T1 sequence (O43570 30-289 limits assumed): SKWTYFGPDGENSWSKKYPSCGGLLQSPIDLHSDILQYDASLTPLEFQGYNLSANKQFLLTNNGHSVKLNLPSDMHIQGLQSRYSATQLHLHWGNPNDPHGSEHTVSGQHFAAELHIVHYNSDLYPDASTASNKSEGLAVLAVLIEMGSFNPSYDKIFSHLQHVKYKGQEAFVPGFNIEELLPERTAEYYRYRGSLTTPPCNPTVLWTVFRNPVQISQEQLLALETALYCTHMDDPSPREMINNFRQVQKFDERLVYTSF

As to `Cc1cc(O)ccc1/N=N/c1ccc(S(N)(=O)=O)cc1` [4j, (E)-4-((4-hydroxy-2-methylphenyl)diazenyl)benzenesulfonamide], the Ki at hCA XII amounted to 84.1 nM; on hCA IX, 213 nM; on hCA II it was 4.7 nM; on hCA I, 5.3 nM; on HpαCA, 72.2 nM; on PsCA3 it was 1840 nM. For the same molecule, the Ki worked out at 138 nM at HpβCA, 3040 nM on EcoβCA, 914 nM on PgiγCA and 5780 nM on PgiβCA. Further, the MBC with H. pylori ATCC 43504 came to 32 µg/mL (≈ 110 µM). In the test with H. pylori ATCC 43504, this molecule displayed an MIC of 16 µg/mL (≈ 54.9 µM).
`NS(=O)(=O)c1ccc(/N=N/c2ccc(O)cc2C(F)(F)F)cc1` [4e, (E)-4-((4-hydroxy-2-(trifluoromethyl)phenyl)diazenyl)benzenesulfonamide]: the Ki on hCA XII worked out at 54.1 nM; at hCA IX, 191 nM; on hCA II it was 4.2 nM; on hCA I, 5.4 nM; at HpαCA, 89.2 nM; at PsCA3, 495 nM. Also, the Ki was determined as 68.8 nM on HpβCA, 95.3 nM on EcoβCA, 347 nM on PgiγCA and 899 nM at PgiβCA. Further, the MBC in the test on H. pylori ATCC 43504 worked out at 16 µg/mL (≈ 46.3 µM). The molecule further registered an MIC against H. pylori ATCC 43504 of 8 µg/mL (≈ 23.2 µM).
For the molecule `COc1ccc(O)c(/N=N/c2ccc(S(N)(=O)=O)cc2)c1` [4a, (E)-4-((2-hydroxy-5-methoxyphenyl)diazenyl)benzenesulfonamide], the Ki at hCA XII was 9.5 nM; on hCA IX, 201 nM; at hCA II, 24.1 nM; at hCA I it was 45 nM; on HpαCA, 65.8 nM; on PsCA3 it was 228 nM. Further, the Ki was 74.1 nM on HpβCA, 400 nM at EcoβCA, 3440 nM on PgiγCA and 803 nM on PgiβCA. In the test on H. pylori ATCC 43504, this molecule gave an MBC of 32 µg/mL (≈ 104 µM). In the test on H. pylori ATCC 43504, this molecule had an MIC of 8 µg/mL (≈ 26 µM).
In the case of `Cc1cc(/N=N/c2ccc(S(N)(=O)=O)cc2)ccc1O` [4i, (E)-4-((4-hydroxy-3-methylphenyl)diazenyl)benzenesulfonamide], the Ki turned out to be 7.5 nM at hCA XII; 181 nM at hCA IX; 3.4 nM at hCA II; 4.4 nM at hCA I; 140 nM on HpαCA; 114 nM on PsCA3. Besides, the Ki at HpβCA was found to be 119 nM; at EcoβCA, 2110 nM; on PgiγCA, 6330 nM; on PgiβCA it was 2070 nM. This molecule also had an MBC against H. pylori ATCC 43504 of 64 µg/mL (≈ 220 µM). Further, in the test with H. pylori ATCC 43504, the MIC was 32 µg/mL (≈ 110 µM).

The values are drawn from paper PMC11357054, “Azobenzenesulfonamide Carbonic Anhydrase Inhibitors as New Weapons to Fight Helicobacter pylori: Synthesis, Bioactivity Evaluation, In Vivo Toxicity, and Computational Studies” (Pharmaceuticals, 2024).
